2 compounds from publication PMC10123561 (Signal Transduction and Targeted Therapy, 2023) can be followed below.

In one test the test system is SARS-CoV-2 Delta. The class given is cell-based.
A further test relates to SARS-CoV-2 Omicron. The class given is cell-based.

Values joined by “and” are separate entries in the source; they are usually repeats but may differ in a detail not shown here. Equal entries are not always repeated. Structures can show the parent of a compound that is named as a salt.

In general, EC50 refers to the concentration needed to bring the measured effect to its halfway point. High values mean a less potent agent, low ones a more potent agent. In the case of `CCC(CC)COC(=O)[C@H](C)N[P@](=O)(OC[C@H]1O[C@@](C#N)(c2ccc3c(N)ncnn23)[C@H](O)[C@@H]1O)Oc1ccccc1` [Remdesivir], the EC50 with SARS-CoV-2 Delta is 0.85 µM and 1.11 µM; in the test with SARS-CoV-2 Omicron, 1.5 ± 0.2 µM.

For the compound `Cc1c(O)cccc1C(=O)N[C@@H](CSc1ccccc1)[C@H](O)CN1C[C@H]2CCCC[C@H]2C[C@H]1C(=O)NC(C)(C)C` [nelfinavir, Nelfinavir Mesylate], the EC50 was 2.09 µM and 1.76 µM with SARS-CoV-2 Delta; 2.03 µM and 1.73 µM in the test on SARS-CoV-2 Omicron.
